Measured values: US10414811B2, “Protease-resistant lipidated GLP-1 analogs” (MEDIMMUNE LIMITED, priority 2015, dated 2019)
Like-named read-outs stand apart in the source and are kept apart here. Numbered stars: 1 amine (or outer) side, 2 acyl side, 3 side chain; on linkers, the order of the positions; unused ones are H or OH. Square brackets hold non-standard residues; d marks the D form. Side chains are listed from the residue outwards. Peptide text beside a SMILES is read from it. * marks the point of attachment. C16 diacid = O=C(O)CCCCCCCCCCCCCCC(=O)*; γGlu = O=C(O)[C@H](CCC(=O)[*:2])N[*:1]; αMeF = C[C@](N)(Cc1ccccc1)C(=O)O; αMeK = C[C@](N)(CCCCN)C(=O)O; AEEA = NCCOCCOCC(=O)O; Aib = CC(C)(N)C(=O)O

Legend:
Assay type in all cases: cell-based
[1] = molecular target: T1, human glucose-dependent insulinotropic peptide receptor (GIPR) (Homo sapiens, UniProt P48546); test: cAMP assay, human GIPR cells
T1 construct: expressed in transfected cells
T1 sequence (P48546 22-466): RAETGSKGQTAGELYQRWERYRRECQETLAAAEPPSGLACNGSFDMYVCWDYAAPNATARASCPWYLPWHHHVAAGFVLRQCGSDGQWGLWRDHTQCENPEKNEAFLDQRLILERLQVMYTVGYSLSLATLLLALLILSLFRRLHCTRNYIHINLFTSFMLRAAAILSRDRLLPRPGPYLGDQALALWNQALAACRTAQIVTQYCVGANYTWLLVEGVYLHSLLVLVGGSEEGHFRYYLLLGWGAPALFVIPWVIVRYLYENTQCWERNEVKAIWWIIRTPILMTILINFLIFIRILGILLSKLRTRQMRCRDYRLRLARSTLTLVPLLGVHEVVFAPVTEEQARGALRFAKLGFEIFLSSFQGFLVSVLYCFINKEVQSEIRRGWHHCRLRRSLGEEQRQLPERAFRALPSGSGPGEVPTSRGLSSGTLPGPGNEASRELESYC
Outline: (§1)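 Peptide-stimulated cAMP measured by two-step HTRF after a 30 min room-temperature incubation with receptor-expressing cells (hGLP-1R, hGIPR at 1×10^5 cells/ml; hGCGR at 2×10^5 cells/ml). Duplicate dilutions; EC50 from 4-parameter logistic fit of % Delta F.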

[2] = molecular target: T2, human GLP-1 receptor (GLP-1R) (Homo sapiens, UniProt P43220); test: cAMP assay, human GLP-1R cells
T2 construct: expressed in transfected cells
T2 sequence (P43220 24-463): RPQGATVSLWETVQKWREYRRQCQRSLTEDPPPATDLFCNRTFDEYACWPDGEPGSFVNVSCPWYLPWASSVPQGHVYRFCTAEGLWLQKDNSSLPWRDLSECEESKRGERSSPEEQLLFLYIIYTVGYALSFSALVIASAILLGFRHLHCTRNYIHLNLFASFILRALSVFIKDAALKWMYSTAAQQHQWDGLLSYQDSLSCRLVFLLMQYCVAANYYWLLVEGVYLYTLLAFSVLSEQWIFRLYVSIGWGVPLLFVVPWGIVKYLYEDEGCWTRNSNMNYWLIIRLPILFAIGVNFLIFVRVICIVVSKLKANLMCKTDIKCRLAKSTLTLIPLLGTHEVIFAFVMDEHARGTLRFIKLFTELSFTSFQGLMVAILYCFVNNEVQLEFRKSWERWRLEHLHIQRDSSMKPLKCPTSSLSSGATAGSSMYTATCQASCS
Outline: as §1

[3] = molecular target: T3, human glucagon receptor (GCGR) (Homo sapiens, UniProt P47871); test: cAMP assay, human GCGR cells
T3 construct: expressed in transfected cells
T3 sequence (P47871 26-477): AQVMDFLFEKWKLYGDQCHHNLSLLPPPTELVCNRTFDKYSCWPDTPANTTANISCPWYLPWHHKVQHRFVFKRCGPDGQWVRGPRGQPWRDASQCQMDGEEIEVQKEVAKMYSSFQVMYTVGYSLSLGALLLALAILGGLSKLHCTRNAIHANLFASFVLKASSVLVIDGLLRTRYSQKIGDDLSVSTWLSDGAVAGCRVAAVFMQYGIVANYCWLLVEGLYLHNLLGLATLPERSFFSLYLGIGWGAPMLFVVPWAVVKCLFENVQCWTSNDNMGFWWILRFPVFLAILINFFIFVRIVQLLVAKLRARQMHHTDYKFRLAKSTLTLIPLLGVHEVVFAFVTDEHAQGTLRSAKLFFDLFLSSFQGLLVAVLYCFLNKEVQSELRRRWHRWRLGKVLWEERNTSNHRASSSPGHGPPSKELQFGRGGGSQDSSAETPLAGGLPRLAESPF
Outline: as §1

[4] = mean of n1 and n2, read-out: Mean pM GLP-1R
[5] = first run (n1), cAMP activity, read-out: Primary assay EC50 GIP-R
[6] = second run (n2), cAMP activity, read-out: Primary assay EC50 GIP-R
[7] = first run (n1), cAMP activity, read-out: Primary assay EC50 GLP-1R n1
[8] = second run (n2), cAMP activity, read-out: Primary assay EC50 GLP-1R n2
[9] = first run (n1), cAMP activity of substituted and mono-lipidated peptides, read-out: Primary assay EC50 Gluc-R
[10] = second run (n2), cAMP activity, read-out: Primary assay EC50 Gluc-R

| SMILES | EC50 ([1]; cAMP assay, first determination (n1), read-out: Primary assay EC50 GIP-R (n1)) [pM] | EC50 ([1]; cAMP assay, second determination (n2), read-out: Primary assay EC50 GIP-R (n2)) [pM] | EC50 ([2]; cAMP assay, first determination (n1), read-out: Primary assay EC50 GLP-1R n1) [pM] | EC50 ([2]; cAMP assay, second determination (n2), read-out: Primary assay EC50 GLP-1R n2) [pM] | EC50 [2, 4] [pM] | EC50 ([3]; cAMP assay, first determination (n1), read-out: Primary assay EC50 Gluc-R (n1)) [pM] | EC50 ([3]; cAMP assay, second determination (n2), read-out: Primary assay EC50 Gluc-R (n2)) [pM] | EC50 [1, 5] [pM] | EC50 [1, 6] [pM] | EC50 [2, 7] [pM] | EC50 [2, 8] [pM] | EC50 [3, 9] [pM] | EC50 [3, 10] [pM] | EC50 ([1]; bis-lipidated peptides, first replicate, read-out: Primary assay EC50 GIP-R (n1)) [pM] | EC50 ([2]; bis-lipidated peptides, mean of n1 and n2, read-out: Primary assay EC50 Mean pM GLP-1R) [pM] | EC50 ([2]; bis-lipidated peptides, replicate n1, read-out: Primary assay EC50 GLP-1R n1) [pM] | EC50 ([2]; bis-lipidated peptides, replicate n2, read-out: Primary assay EC50 GLP-1R n2) [pM] | EC50 ([3]; bis-lipidated peptides, first replicate, read-out: Primary assay EC50 Gluc-R (n1)) [pM] |
| --- | --- | --- | --- | --- | --- | --- | --- | --- | --- | --- | --- | --- | --- | --- | --- | --- | --- | --- |
| CCCCCCCCCCCCCCCCCC(=O)NCCCCCC(=O)NCCCCCC(=O)NCCCCCC(=O)NCCCC[C@H](NC(=O)[C@@H](NC(=O)[C@@H](NC(=O)[C@](C)(Cc1ccccc1)NC(=O)[C@H](C)NC(=O)[C@@H](NC(=O)[C@](C)(Cc1ccccc1)NC(=O)[C@H](CCC(=O)O)NC(=O)[C@](C)(CCCCN)NC(=O)[C@H](C)NC(=O)[C@H](C)NC(=O)[C@H](CCC(=O)O)NC(=O)CNC(=O)[C@H](CCC(=O)O)NC(=O)[C@H](CC(C)C)NC(=O)[C@](C)(Cc1ccccc1)NC(=O)[C@H](CO)NC(=O)[C@](C)(CO)NC(=O)[C@@H](NC(=O)[C@H](CC(=O)O)NC(=O)[C@H](CO)NC(=O)[C@@H](NC(=O)[C@](C)(Cc1ccccc1)NC(=O)[C@H](CO)NC(=O)CNC(=O)[C@H](CCC(=O)O)NC(=O)C(C)(C)NC(=O)[C@@H](N)Cc1c[nH]cn1)[C@@H](C)O)C(C)C)[C@@H](C)CC)C(C)C)C(C)C)C(=O)NCC(=O)NCC(N)=O [compound 187] | ≥ 26000 | ≥ 26000 | 64 | 31 | 47.4 | ≥ 26000 | ≥ 26000 | – | – | – | – | – | – | – | – | – | – | – |
| CC[C@H](C)[C@H](NC(=O)[C@](C)(Cc1ccccc1)NC(=O)[C@H](CCC(=O)O)NC(=O)[C@](C)(CCCCN)NC(=O)[C@H](C)NC(=O)[C@H](C)NC(=O)[C@H](CCC(=O)O)NC(=O)CNC(=O)[C@H](CCC(=O)O)NC(=O)[C@H](CC(C)C)NC(=O)[C@](C)(Cc1ccccc1)NC(=O)[C@H](CO)NC(=O)[C@](C)(CO)NC(=O)[C@@H](NC(=O)[C@H](CC(=O)O)NC(=O)[C@H](CO)NC(=O)[C@@H](NC(=O)[C@](C)(Cc1ccccc1)NC(=O)[C@H](CO)NC(=O)CNC(=O)[C@H](CCC(=O)O)NC(=O)C(C)(C)NC(=O)[C@@H](N)Cc1c[nH]cn1)[C@@H](C)O)C(C)C)C(=O)N[C@@H](C)C(=O)N[C@@](C)(Cc1ccccc1)C(=O)N[C@H](C(=O)N[C@H](C(=O)N[C@@H](CCCCNC(=O)CC[C@H](NC(=O)CCCCCCCCCCCCCCCCC(=O)O)C(=O)O)C(=O)NCC(=O)NCC(N)=O)C(C)C)C(C)C [compound 191] | – | – | – | – | 182 | – | – | ≥ 28000 | ≥ 28000 | 250 | 110 | ≥ 28000 | ≥ 28000 | – | – | – | – | – |
| CC[C@H](C)[C@H](NC(=O)[C@](C)(Cc1ccccc1)NC(=O)[C@H](CCC(=O)O)NC(=O)[C@](C)(CCCCN)NC(=O)[C@H](C)NC(=O)[C@H](C)NC(=O)[C@H](CCC(=O)O)NC(=O)CNC(=O)[C@H](CCC(=O)O)NC(=O)[C@H](CC(C)C)NC(=O)[C@](C)(Cc1ccccc1)NC(=O)[C@H](CO)NC(=O)[C@](C)(CO)NC(=O)[C@@H](NC(=O)[C@H](CC(=O)O)NC(=O)[C@H](CO)NC(=O)[C@@H](NC(=O)[C@](C)(Cc1ccccc1)NC(=O)[C@H](CO)NC(=O)CNC(=O)[C@H](CCC(=O)O)NC(=O)C(C)(C)NC(=O)[C@@H](N)Cc1c[nH]cn1)[C@@H](C)O)C(C)C)C(=O)N[C@@H](C)C(=O)N[C@@](C)(Cc1ccccc1)C(=O)N[C@H](C(=O)N[C@H](C(=O)N[C@@H](CCCCNC(=O)CC[C@H](NC(=O)CC[C@H](NC(=O)CCCCCCCCCCCCCCCCC(=O)O)C(=O)O)C(=O)O)C(=O)NCC(=O)NCC(N)=O)C(C)C)C(C)C [compound 192] | – | – | – | – | 113 | – | – | ≥ 27000 | – | 170 | 60 | ≥ 27000 | – | – | – | – | – | – |
| CC[C@H](C)[C@H](NC(=O)[C@](C)(Cc1ccccc1)NC(=O)[C@H](CCC(=O)O)NC(=O)[C@](C)(CCCCN)NC(=O)[C@H](C)NC(=O)[C@H](C)NC(=O)[C@H](CCC(=O)O)NC(=O)CNC(=O)[C@H](CCC(=O)O)NC(=O)[C@H](CC(C)C)NC(=O)[C@](C)(Cc1ccccc1)NC(=O)[C@H](CO)NC(=O)[C@](C)(CO)NC(=O)[C@@H](NC(=O)[C@H](CC(=O)O)NC(=O)[C@H](CO)NC(=O)[C@@H](NC(=O)[C@](C)(Cc1ccccc1)NC(=O)[C@H](CO)NC(=O)CNC(=O)[C@H](CCC(=O)O)NC(=O)C(C)(C)NC(=O)[C@@H](N)Cc1c[nH]cn1)[C@@H](C)O)C(C)C)C(=O)N[C@@H](C)C(=O)N[C@@](C)(Cc1ccccc1)C(=O)N[C@H](C(=O)N[C@H](C(=O)N[C@@H](CCCCNC(=O)CC[C@H](NC(=O)CC[C@H](NC(=O)CC[C@H](NC(=O)CCCCCCCCCCCCCCCCC(=O)O)C(=O)O)C(=O)O)C(=O)O)C(=O)NCC(=O)NCC(N)=O)C(C)C)C(C)C [compound 193] | – | – | – | – | 213 | – | – | ≥ 26000 | ≥ 26000 | 330 | 95 | ≥ 26000 | ≥ 26000 | – | – | – | – | – |
| CC[C@H](C)[C@H](NC(=O)[C@](C)(Cc1ccccc1)NC(=O)[C@H](CCC(=O)O)NC(=O)[C@](C)(CCCCN)NC(=O)[C@H](C)NC(=O)[C@H](C)NC(=O)[C@H](CCC(=O)O)NC(=O)CNC(=O)[C@H](CCC(=O)O)NC(=O)[C@H](CC(C)C)NC(=O)[C@](C)(Cc1ccccc1)NC(=O)[C@H](CO)NC(=O)[C@](C)(CO)NC(=O)[C@@H](NC(=O)[C@H](CC(=O)O)NC(=O)[C@H](CO)NC(=O)[C@@H](NC(=O)[C@](C)(Cc1ccccc1)NC(=O)[C@H](CO)NC(=O)CNC(=O)[C@H](CCC(=O)O)NC(=O)C(C)(C)NC(=O)[C@@H](N)Cc1c[nH]cn1)[C@@H](C)O)C(C)C)C(=O)N[C@@H](C)C(=O)N[C@@](C)(Cc1ccccc1)C(=O)N[C@H](C(=O)N[C@H](C(=O)N[C@@H](CCCCNC(=O)CCCCCNC(=O)CCCCCCCCCCCCCCCCC(=O)O)C(=O)NCC(=O)NCC(N)=O)C(C)C)C(C)C [compound 194] | – | – | – | – | 154 | – | – | ≥ 28000 | ≥ 28000 | 240 | 68 | ≥ 28000 | ≥ 28000 | – | – | – | – | – |
| CC[C@H](C)[C@H](NC(=O)[C@](C)(Cc1ccccc1)NC(=O)[C@H](CCC(=O)O)NC(=O)[C@](C)(CCCCN)NC(=O)[C@H](C)NC(=O)[C@H](C)NC(=O)[C@H](CCC(=O)O)NC(=O)CNC(=O)[C@H](CCC(=O)O)NC(=O)[C@H](CC(C)C)NC(=O)[C@](C)(Cc1ccccc1)NC(=O)[C@H](CO)NC(=O)[C@](C)(CO)NC(=O)[C@@H](NC(=O)[C@H](CC(=O)O)NC(=O)[C@H](CO)NC(=O)[C@@H](NC(=O)[C@](C)(Cc1ccccc1)NC(=O)[C@H](CO)NC(=O)CNC(=O)[C@H](CCC(=O)O)NC(=O)C(C)(C)NC(=O)[C@@H](N)Cc1c[nH]cn1)[C@@H](C)O)C(C)C)C(=O)N[C@@H](C)C(=O)N[C@@](C)(Cc1ccccc1)C(=O)N[C@H](C(=O)N[C@H](C(=O)N[C@@H](CCCCNC(=O)CCCCCNC(=O)CCCCCNC(=O)CCCCCCCCCCCCCCCCC(=O)O)C(=O)NCC(=O)NCC(N)=O)C(C)C)C(C)C [compound 195] | – | – | – | – | 107 | – | – | ≥ 27000 | ≥ 27000 | 170 | 46 | ≥ 27000 | ≥ 27000 | – | – | – | – | – |
| CC[C@H](C)[C@H](NC(=O)[C@H](Cc1ccccc1)NC(=O)[C@H](CCC(=O)O)NC(=O)[C@](C)(CCCCN)NC(=O)[C@H](C)NC(=O)[C@H](C)NC(=O)[C@H](CCC(=O)O)NC(=O)CNC(=O)[C@H](CCC(=O)O)NC(=O)[C@H](CC(C)C)NC(=O)[C@H](Cc1ccc(O)cc1)NC(=O)[C@H](CO)NC(=O)[C@H](CO)NC(=O)[C@H](CCCCNC(=O)COCCOCCNC(=O)COCCOCCNC(=O)CC[C@H](NC(=O)CCCCCCCCCCCCCCC(=O)O)C(=O)O)NC(=O)[C@H](CC(=O)O)NC(=O)[C@H](CO)NC(=O)[C@@H](NC(=O)[C@](C)(Cc1ccccc1)NC(=O)[C@H](CO)NC(=O)CNC(=O)[C@H](CCC(=O)O)NC(=O)C(C)(C)NC(=O)[C@@H](N)Cc1c[nH]cn1)[C@@H](C)O)C(=O)N[C@@H](C)C(=O)N[C@@H](CCCCNC(=O)COCCOCCNC(=O)COCCOCCNC(=O)CC[C@H](NC(=O)CCCCCCCCCCCCCCC(=O)O)C(=O)O)C(=O)N[C@H](C(=O)N[C@H](C(=O)N[C@@H](CCC(=O)O)C(=O)NCC(=O)NCC(N)=O)C(C)C)C(C)C [compound 260] (H-H[Aib]EGS[αMeF]TSDK([AEEA-AEEA-γGlu-C16 diacid])SSYLEGEAA[αMeK]EFIAK([AEEA-AEEA-γGlu-C16 diacid])VVEGG-NH2; N-terminus assumed) | – | – | – | – | – | – | – | – | – | – | – | – | – | ≥ 21900 | 388 | 334 | 443 | ≥ 21900 |
